Measured values taken from the supplement of paper PMC11208160.

Test: recombinant barcode read abundance after kanamycin selection (control-corrected) (log10(CPM+1)); higher = more efficient recombination; sequences stand for … in AGTGCAGAGAAAATCGGCCAGTTTTCTCTGCCTGCAGTCCGCATGCCGT…AGATTTATGCAGCGGACTGCCTTTCTCCCAAAGTGATAAACCGGACAGTATCATGGACCGGTTTTCCCGGTAATCCGTATTTGCAAGGTTGGTTTCACT; site = the 11-nt target
In short: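 In a pooled screen in E. coli, targets were paired with target-binding loops of the IS621 bridge RNA. Each oligo carried a promoter, a target, a barcode and the first 104 bridge RNA bases driven by J23119, and was Gibson-cloned into a vector holding the remaining 73 bp and a T7-inducible recombinase before co-electroporation with a donor plasmid. Duplicate platings went onto chloramphenicol/ampicillin LB agar as the control or onto chloramphenicol/ampicillin/kanamycin with 0.1 mM IPTG. Recombination efficiency is the averaged, control-corrected count per million of barcodes at recombinant junctions, given as log10(CPM+1).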
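Note: IS621 recombinase and bridge RNA in Escherichia coli cells.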

Row | Sequence | recombinant barcode read abundance (log10)
1 | CACATTCCTTGGGTTCTAACCTGTTGCCT (site AACATTCCTAG) | 0.158
2 | CACATTCCTTGGGTTCTAACCTGTTGCCT (site CACATTCCTAG) | 0.17
3 | CACATTCCTTGGGTTCTAACCTGTTGCCT (site GACATTCCTAG) | 0.141
4 | CACATTCCTTGGGTTCTAACCTGTTGCCT (site TACATTCCTAG) | 0.06
5 | CACCACTCTTGGGTTCTAACCTGTTGCCT (site AACCACTCTAG) | 0.545
6 | CACCACTCTTGGGTTCTAACCTGTTGCCT (site CACCACTCTAG) | 1.56
7 | CACCACTCTTGGGTTCTAACCTGTTGCCT (site GACCACTCTAG) | 0.108
8 | CACCACTCTTGGGTTCTAACCTGTTGCCT (site TACCACTCTAG) | 0.195
9 | CACCGTTCTTGGGTTCTAACCTGTTGCTT (site CACCGTTCTAA) | 0.552
10 | CACCGTTCTTGGGTTCTAACCTGTTGCTT (site CATCGCTCTAA) | 0.0503
11 | CACGAGACTTGGGTTCTAACCTGTTGCCT (site CACGAGACTAG) | 2.05
12 | CACGAGACTTGGGTTCTAACCTGTTGCCT (site CACGAGCCTAG) | 0.0856
13 | CACGAGACTTGGGTTCTAACCTGTTGCCT (site CACGAGGCTAG) | 1.02
14 | CACGAGACTTGGGTTCTAACCTGTTGCCT (site CACGAGTCTAG) | 0.424
15 | CACGAGTCTTGGGTTCTAACCTGTTGCCT (site CACGAGACTAG) | 0.0562
16 | CACGAGTCTTGGGTTCTAACCTGTTGCCT (site CACGAGCCTAG) | 0.24
17 | CACGAGTCTTGGGTTCTAACCTGTTGCCT (site CACGAGGCTAG) | 0.109
18 | CACGAGTCTTGGGTTCTAACCTGTTGCCT (site CACGAGTCTAG) | 1.57

Row | Sequence | recombinant barcode read abundance (log10)
19 | CACGCCTCTTGGGTTCTAACCTGTTGCCT (site AACGCCTCTAG) | 0.116
20 | CACGCCTCTTGGGTTCTAACCTGTTGCCT (site CACGCCTCTAG) | 1.88
21 | CACGCCTCTTGGGTTCTAACCTGTTGCCT (site GACGCCTCTAG) | 0.385
22 | CACGCCTCTTGGGTTCTAACCTGTTGCCT (site TACGCCTCTAG) | 0.0712
23 | CACGCGCCTTGGGTTCTAACCTGTTGCGG (site CACGCGCCTCC) | 1.84
24 | CACGCGCCTTGGGTTCTAACCTGTTGCGG (site GCTCATACTAG) | 0.00629
25 | CACGGGACTTGGGTTCTAACCTGTTGCAG (site CACGGGACTCT) | 2.58
26 | CACGGGACTTGGGTTCTAACCTGTTGCAG (site TCGAACGCTAA) | 0.111
27 | CACGGGGCTTGGGTTCTAACCTGTTGCCT (site ATGCTACCTCC) | 0.0666
28 | CACGGGGCTTGGGTTCTAACCTGTTGCCT (site CACGGGGCTAG) | 0.697
29 | CACGGTCCTTGGGTTCTAACCTGTTGCCA (site ATGCTATCTCT) | 0.0164
30 | CACGGTCCTTGGGTTCTAACCTGTTGCCA (site CACGGTCCTTG) | 1.31
31 | CACGGTCCTTGGGTTCTAACCTGTTGCGG (site AACGCTCCTCC) | 0.0287
32 | CACGGTCCTTGGGTTCTAACCTGTTGCGG (site CACGGTCCTCC) | 3.16
33 | CACGTTACTTGGGTTCTAACCTGTTGCCT (site CACGGAACTAG) | 0.0559
34 | CACGTTACTTGGGTTCTAACCTGTTGCCT (site CACGTTACTAG) | 0.628
35 | CACTAGCCTTGGGTTCTAACCTGTTGCGG (site CACTAGCCTCC) | 2.41
36 | CACTAGCCTTGGGTTCTAACCTGTTGCGG (site CACTATCCTCC) | 0.133
